Source: the kinase profiling compilation of Christmann-Franck et al. (2016)
Several values for one entry are separate records, joined by “and”; a condition that tells them apart may be missing. Equal entries are not always repeated.

How the values were obtained:
Experiment in all cases: radiometric filter-binding kinase assay, Kinase HotSpot
Settings in all cases: compound 0.5 µM; ATP 10 µM
CSNK1E (human) = CSNK1E (human) (UniProt P49674)
BTK (human) = BTK (human) (UniProt Q06187)
STK39 (human) = STK39 (human) (UniProt Q9UEW8)
SRPK2 (human) = SRPK2 (human) (UniProt P78362)
RPS6KA6 KD1 KD2 (human) = RPS6KA6 KD1 KD2 (human) (UniProt Q9UK32)
CDK4 CCND1 (human) = CDK4 CCND1 (human) (UniProt P24385+P11802)
AKT1 (human) = AKT1 (human) (UniProt P31749)
SRMS (human) = SRMS (human) (UniProt Q9H3Y6)
CDK9 CCNK (human) = CDK9 CCNK (human) (UniProt O75909+P50750)
SRPK3 (human) = SRPK3 (human) (UniProt Q9UPE1)
HCK (human) = HCK (human) (UniProt P08631)
GSG2 (human) = GSG2 (human) (UniProt Q8TF76)
EPHA8 (human) = EPHA8 (human) (UniProt P29322)
CAMKK2 (human) = CAMKK2 (human) (UniProt Q96RR4)
PRKG2 (human) = PRKG2 (human) (UniProt Q13237)
IRAK4 (human) = IRAK4 (human) (UniProt Q9NWZ3)
CDK2 CCNA2 (human) = CDK2 CCNA2 (human) (UniProt P24941+P20248)
MST4 (human) = MST4 (human) (UniProt Q9P289)
STK11 (human) = STK11 (human) (UniProt Q15831)
PRKCI (human) = PRKCI (human) (UniProt P41743)
PIM1 (human) = PIM1 (human) (UniProt P11309)
PRKCG (human) = PRKCG (human) (UniProt P05129)
MLTK (human) = MLTK (human) (UniProt Q9NYL2)
STK4 (human) = STK4 (human) (UniProt Q13043)
FES (human) = FES (human) (UniProt P07332)
EPHA2 (human) = EPHA2 (human) (UniProt P29317)
FRK (human) = FRK (human) (UniProt P42685)
NTRK3 (human) = NTRK3 (human) (UniProt Q16288)
CDK1 CCNB1 (human) = CDK1 CCNB1 (human) (UniProt P06493+P14635)
LRRK2 (human) = LRRK2 (human) (UniProt Q5S007)
ADRBK1 (human) = ADRBK1 (human) (UniProt P25098)
CDK6 CCND1 (human) = CDK6 CCND1 (human) (UniProt Q00534+P24385)
EPHA4 (human) = EPHA4 (human) (UniProt P54764)
PTK2B (human) = PTK2B (human) (UniProt Q14289)
RPS6KA3 KD1 KD2 (human) = RPS6KA3 KD1 KD2 (human) (UniProt P51812)
MAP4K2 (human) = MAP4K2 (human) (UniProt Q12851)
TXK (human) = TXK (human) (UniProt P42681)
SRPK1 (human) = SRPK1 (human) (UniProt Q96SB4)
LYN (human) = LYN (human) (UniProt P07948)
PAK4 (human) = PAK4 (human) (UniProt O96013)
Sequence of PAK4 (human) (O96013 whole entry, looked up): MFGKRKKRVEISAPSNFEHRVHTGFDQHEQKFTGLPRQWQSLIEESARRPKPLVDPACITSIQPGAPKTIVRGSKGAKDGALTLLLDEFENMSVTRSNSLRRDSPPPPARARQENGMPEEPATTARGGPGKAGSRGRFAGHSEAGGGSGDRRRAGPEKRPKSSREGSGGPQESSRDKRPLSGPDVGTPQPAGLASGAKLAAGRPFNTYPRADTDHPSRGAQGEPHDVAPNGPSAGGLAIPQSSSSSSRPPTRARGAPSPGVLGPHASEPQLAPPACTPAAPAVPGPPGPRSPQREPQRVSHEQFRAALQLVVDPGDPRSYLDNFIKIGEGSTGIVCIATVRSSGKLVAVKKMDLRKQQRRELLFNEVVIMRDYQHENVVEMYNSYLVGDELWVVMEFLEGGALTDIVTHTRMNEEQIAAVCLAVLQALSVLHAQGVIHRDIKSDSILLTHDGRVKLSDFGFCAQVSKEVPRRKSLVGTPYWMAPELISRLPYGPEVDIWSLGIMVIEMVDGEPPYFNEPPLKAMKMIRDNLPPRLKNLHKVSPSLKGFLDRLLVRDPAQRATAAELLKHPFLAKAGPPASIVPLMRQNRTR

Sequence of SRPK1 (human) (Q96SB4 whole entry, looked up): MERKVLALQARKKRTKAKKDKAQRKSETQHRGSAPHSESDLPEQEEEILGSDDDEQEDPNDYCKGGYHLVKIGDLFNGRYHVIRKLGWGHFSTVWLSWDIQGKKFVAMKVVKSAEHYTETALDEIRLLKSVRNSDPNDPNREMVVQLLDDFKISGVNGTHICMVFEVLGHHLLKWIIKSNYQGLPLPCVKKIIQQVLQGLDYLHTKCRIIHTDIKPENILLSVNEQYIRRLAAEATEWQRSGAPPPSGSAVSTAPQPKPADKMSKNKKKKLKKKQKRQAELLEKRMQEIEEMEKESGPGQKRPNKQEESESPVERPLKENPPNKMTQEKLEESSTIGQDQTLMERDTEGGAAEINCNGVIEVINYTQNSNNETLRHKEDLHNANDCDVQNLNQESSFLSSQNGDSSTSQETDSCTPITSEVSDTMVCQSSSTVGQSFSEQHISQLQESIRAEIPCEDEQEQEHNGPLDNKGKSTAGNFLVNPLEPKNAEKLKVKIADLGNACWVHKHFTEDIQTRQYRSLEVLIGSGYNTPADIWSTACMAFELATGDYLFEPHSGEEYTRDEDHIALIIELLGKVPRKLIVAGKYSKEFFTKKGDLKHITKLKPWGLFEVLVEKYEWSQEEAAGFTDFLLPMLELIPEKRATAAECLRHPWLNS
Sequence of SRMS (human) (Q9H3Y6 whole entry, looked up): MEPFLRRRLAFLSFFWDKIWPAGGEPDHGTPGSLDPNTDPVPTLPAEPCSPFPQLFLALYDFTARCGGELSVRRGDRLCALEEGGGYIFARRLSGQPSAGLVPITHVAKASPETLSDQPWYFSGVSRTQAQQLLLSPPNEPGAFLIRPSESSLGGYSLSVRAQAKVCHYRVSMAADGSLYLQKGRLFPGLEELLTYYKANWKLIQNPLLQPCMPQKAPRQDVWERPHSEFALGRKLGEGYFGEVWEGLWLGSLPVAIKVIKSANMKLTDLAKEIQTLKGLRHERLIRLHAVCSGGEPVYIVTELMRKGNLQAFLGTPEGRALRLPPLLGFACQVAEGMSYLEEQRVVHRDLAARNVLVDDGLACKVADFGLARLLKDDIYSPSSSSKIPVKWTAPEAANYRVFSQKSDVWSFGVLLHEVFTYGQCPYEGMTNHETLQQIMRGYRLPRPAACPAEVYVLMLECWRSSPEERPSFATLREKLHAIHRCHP
Sequence of AKT1 (human) (P31749 whole entry, looked up): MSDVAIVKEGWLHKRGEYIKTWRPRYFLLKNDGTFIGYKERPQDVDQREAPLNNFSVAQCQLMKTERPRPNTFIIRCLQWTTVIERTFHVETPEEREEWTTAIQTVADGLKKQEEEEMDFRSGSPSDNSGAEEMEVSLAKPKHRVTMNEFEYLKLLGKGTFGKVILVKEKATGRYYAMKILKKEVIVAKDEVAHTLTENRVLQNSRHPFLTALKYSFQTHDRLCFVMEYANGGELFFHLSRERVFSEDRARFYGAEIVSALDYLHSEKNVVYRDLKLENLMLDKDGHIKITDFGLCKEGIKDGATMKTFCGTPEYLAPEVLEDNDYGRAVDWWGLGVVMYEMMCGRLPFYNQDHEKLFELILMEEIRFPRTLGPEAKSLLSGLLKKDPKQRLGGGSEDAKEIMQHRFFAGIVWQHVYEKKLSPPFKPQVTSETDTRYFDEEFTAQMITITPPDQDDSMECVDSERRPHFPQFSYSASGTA
Sequence of FRK (human) (P42685 whole entry, looked up): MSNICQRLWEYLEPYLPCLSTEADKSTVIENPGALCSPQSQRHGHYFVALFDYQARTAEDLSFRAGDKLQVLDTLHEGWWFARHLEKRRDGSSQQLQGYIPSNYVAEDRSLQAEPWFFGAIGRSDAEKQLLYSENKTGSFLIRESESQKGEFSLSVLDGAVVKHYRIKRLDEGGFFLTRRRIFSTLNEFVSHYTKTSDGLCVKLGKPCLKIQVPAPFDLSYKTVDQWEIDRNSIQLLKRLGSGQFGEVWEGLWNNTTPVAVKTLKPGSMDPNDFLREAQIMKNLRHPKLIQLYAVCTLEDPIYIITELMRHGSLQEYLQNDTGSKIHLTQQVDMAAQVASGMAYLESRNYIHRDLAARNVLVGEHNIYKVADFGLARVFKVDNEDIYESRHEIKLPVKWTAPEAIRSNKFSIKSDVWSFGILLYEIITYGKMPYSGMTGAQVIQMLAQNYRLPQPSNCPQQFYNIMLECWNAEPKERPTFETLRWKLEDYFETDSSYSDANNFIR
Sequence of PRKG2 (human) (Q13237 whole entry, looked up): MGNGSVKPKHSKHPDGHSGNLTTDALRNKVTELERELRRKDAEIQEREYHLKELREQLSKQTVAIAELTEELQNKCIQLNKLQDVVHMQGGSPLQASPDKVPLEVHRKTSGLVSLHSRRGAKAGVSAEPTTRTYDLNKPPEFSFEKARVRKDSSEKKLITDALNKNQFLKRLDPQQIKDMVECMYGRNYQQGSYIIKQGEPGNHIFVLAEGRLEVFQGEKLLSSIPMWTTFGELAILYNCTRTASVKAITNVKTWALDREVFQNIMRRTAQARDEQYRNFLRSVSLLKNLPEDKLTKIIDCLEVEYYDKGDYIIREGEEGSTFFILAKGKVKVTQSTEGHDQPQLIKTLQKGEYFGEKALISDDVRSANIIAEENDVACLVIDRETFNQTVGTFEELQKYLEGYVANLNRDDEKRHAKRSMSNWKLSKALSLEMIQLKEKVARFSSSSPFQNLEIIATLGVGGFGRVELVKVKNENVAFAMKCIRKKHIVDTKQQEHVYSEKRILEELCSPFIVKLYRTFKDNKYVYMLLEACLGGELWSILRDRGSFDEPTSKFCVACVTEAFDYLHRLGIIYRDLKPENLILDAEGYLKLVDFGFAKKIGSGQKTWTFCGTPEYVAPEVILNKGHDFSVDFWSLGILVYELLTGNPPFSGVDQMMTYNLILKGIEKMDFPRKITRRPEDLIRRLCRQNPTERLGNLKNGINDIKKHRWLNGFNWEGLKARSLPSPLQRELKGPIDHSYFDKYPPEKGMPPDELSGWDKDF
Sequence of FES (human) (P07332 whole entry, looked up): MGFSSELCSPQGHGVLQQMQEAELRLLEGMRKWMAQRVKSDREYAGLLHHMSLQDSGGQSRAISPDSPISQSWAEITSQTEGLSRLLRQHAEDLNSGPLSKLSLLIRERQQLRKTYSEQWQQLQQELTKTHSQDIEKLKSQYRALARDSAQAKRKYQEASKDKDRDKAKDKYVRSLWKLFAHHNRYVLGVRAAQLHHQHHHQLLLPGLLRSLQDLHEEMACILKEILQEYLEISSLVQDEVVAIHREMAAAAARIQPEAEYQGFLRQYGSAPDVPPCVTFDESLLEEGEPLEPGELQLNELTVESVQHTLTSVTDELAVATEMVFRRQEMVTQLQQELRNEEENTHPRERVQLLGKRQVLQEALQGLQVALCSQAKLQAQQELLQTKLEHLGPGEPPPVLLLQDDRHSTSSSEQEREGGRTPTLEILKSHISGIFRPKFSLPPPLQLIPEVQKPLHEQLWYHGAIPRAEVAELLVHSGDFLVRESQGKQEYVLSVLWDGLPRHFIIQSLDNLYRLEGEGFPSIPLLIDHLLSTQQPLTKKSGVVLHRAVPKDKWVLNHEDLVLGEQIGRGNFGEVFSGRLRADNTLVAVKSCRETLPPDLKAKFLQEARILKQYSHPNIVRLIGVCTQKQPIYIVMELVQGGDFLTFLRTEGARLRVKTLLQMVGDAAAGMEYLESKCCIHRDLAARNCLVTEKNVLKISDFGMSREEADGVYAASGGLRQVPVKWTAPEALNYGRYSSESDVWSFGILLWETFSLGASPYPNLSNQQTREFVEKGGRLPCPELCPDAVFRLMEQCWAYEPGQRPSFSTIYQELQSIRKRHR
Sequence of STK11 (human) (Q15831 whole entry, looked up): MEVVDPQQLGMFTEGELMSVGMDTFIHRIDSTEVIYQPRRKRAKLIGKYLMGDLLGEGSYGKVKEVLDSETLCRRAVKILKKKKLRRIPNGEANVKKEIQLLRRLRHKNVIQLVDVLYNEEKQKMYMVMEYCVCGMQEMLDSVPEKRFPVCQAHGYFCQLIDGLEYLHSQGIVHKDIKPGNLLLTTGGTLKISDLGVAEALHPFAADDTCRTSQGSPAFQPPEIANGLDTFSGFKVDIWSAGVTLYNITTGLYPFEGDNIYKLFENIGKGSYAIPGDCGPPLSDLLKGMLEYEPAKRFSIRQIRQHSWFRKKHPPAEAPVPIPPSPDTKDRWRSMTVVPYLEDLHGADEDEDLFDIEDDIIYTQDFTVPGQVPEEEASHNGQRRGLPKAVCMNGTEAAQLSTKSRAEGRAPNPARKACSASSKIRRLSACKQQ

Structure (SMILES) | residual activity (CSNK1E (human)) [%] | residual activity (BTK (human)) [%] | residual activity (STK39 (human)) [%] | residual activity (RPS6KA6 KD1 KD2 (human)) [%] | residual activity (CDK4 CCND1 (human)) [%] | residual activity (AKT1 (human)) [%] | residual activity (SRMS (human)) [%] | residual activity (CDK9 CCNK (human)) [%] | residual activity (GSG2 (human)) [%] | residual activity (CAMKK2 (human)) [%] | residual activity (PRKG2 (human)) [%] | residual activity (IRAK4 (human)) [%] | residual activity (MST4 (human)) [%] | residual activity (STK11 (human)) [%] | residual activity (PRKCI (human)) [%] | residual activity (PIM1 (human)) [%] | residual activity (PRKCG (human)) [%] | residual activity (MLTK (human)) [%] | residual activity (STK4 (human)) [%] | residual activity (EPHA2 (human)) [%] | further results
O=c1cc(N2CCOCC2)oc2c1ccc1ccccc12 | 92.5 | 112 | 95.7 | 95.4 | 95.6 | 101 | 97.1 | 99.9 | 85.6 | 104 | 102 | 122 | 93.2 | 104 | 95.5 | 54.8 | 101 | 98 | 99.5 | 110 | residual activity (SRPK2 (human)): 100%; residual activity (SRPK3 (human)): 105%; residual activity (HCK (human)): 114%; residual activity (EPHA8 (human)): 101%; residual activity (CDK2 CCNA2 (human)): 100%; residual activity (FES (human)): 100%; residual activity (FRK (human)): 98.8%; residual activity (NTRK3 (human)): 103%; residual activity (CDK1 CCNB1 (human)): 85.5%; residual activity (LRRK2 (human)): 96.9%; residual activity (ADRBK1 (human)): 98.9%; residual activity (CDK6 CCND1 (human)): 102%; residual activity (EPHA4 (human)): 94.4%; residual activity (PTK2B (human)): 94.3%; residual activity (RPS6KA3 KD1 KD2 (human)): 103%; residual activity (MAP4K2 (human)): 118%; residual activity (TXK (human)): 98.9%; residual activity (SRPK1 (human)): 90.9%; residual activity (LYN (human)): 102% and 104%; residual activity (PAK4 (human)): 108%
COc1ccc2c(c[n+](C)c3c4cc5c(cc4ccc23)OCO5)c1OC | 90.7 | 98.6 | 90.8 | 91.1 | 87.5 | 97.6 | 86 | 95.6 | 98.8 | 98.2 | 68.7 | 116 | 89.4 | 82.1 | 98.3 | 97 | 87.2 | 94.7 | 98.9 | 97.4 | residual activity (SRPK3 (human)): 96.1%; residual activity (EPHA8 (human)): 100%; residual activity (CDK2 CCNA2 (human)): 85.1%; residual activity (FES (human)): 108%; residual activity (FRK (human)): 89.3%; residual activity (NTRK3 (human)): 95.2%; residual activity (CDK1 CCNB1 (human)): 84.4%; residual activity (LRRK2 (human)): 104%; residual activity (ADRBK1 (human)): 96.6%; residual activity (CDK6 CCND1 (human)): 103%; residual activity (EPHA4 (human)): 103%; residual activity (PTK2B (human)): 92.3%; residual activity (RPS6KA3 KD1 KD2 (human)): 94.6%; residual activity (MAP4K2 (human)): 96.1%; residual activity (TXK (human)): 100%; residual activity (SRPK1 (human)): 95.3%; residual activity (LYN (human)): 95.4% and 100%; residual activity (PAK4 (human)): 99.5%
CC[n+]1c(/C=C/N(C)c2ccccc2)n(-c2ccccc2)c2ccc(-c3nc4ccccc4s3)cc21 | 105 | 91.6 | 81.1 | 96 | 107 | 104 | 93.7 | 106 | 110 | 115 | 92.4 | 173 | 93.7 | 93.1 | 90.1 | 102 | 99.4 | 93.8 | 98.3 | 100 | residual activity (SRPK2 (human)): 105%; residual activity (HCK (human)): 104%; residual activity (EPHA8 (human)): 96.3%; residual activity (CDK2 CCNA2 (human)): 100%; residual activity (FES (human)): 101%; residual activity (FRK (human)): 97.1%; residual activity (NTRK3 (human)): 100%; residual activity (CDK1 CCNB1 (human)): 105%; residual activity (LRRK2 (human)): 95.5%; residual activity (ADRBK1 (human)): 87.5%; residual activity (CDK6 CCND1 (human)): 103%; residual activity (EPHA4 (human)): 91.9%; residual activity (PTK2B (human)): 103%; residual activity (RPS6KA3 KD1 KD2 (human)): 109%; residual activity (MAP4K2 (human)): 103%; residual activity (TXK (human)): 107%; residual activity (SRPK1 (human)): 105%; residual activity (LYN (human)): 100% and 110%; residual activity (PAK4 (human)): 109%
O=S(=O)(c1cccc2cnccc12)N1CCCNCC1 | 99.3 | 96.5 | 103 | 94 | 92.2 | 99.3 | 97.5 | 86 | 86.6 | 95.9 | 98.9 | 108 | 90 | 97.6 | 87.2 | 77 | 110 | 101 | 94.8 | 102 | residual activity (SRPK2 (human)): 83.9%; residual activity (SRPK3 (human)): 96.4%; residual activity (HCK (human)): 95.9%; residual activity (EPHA8 (human)): 106%; residual activity (FES (human)): 121%; residual activity (FRK (human)): 78.1%; residual activity (NTRK3 (human)): 85.5%; residual activity (CDK1 CCNB1 (human)): 92.7%; residual activity (LRRK2 (human)): 94.2%; residual activity (ADRBK1 (human)): 105%; residual activity (CDK6 CCND1 (human)): 86.4%; residual activity (EPHA4 (human)): 98.5%; residual activity (PTK2B (human)): 90.6%; residual activity (MAP4K2 (human)): 45.7%; residual activity (TXK (human)): 84.1%; residual activity (SRPK1 (human)): 92.6%; residual activity (LYN (human)): 102% and 106%
COc1ccc(COc2ccc(Cc3cnc(N)nc3N)cc2OC)cc1 | 97.1 | 104 | 87.6 | 101 | 97.4 | 97.4 | 95.9 | 102 | 97.7 | 103 | 104 | 110 | 95.5 | 103 | 91.6 | 104 | 102 | 97.4 | 106 | 107 | residual activity (SRPK2 (human)): 87.4%; residual activity (SRPK3 (human)): 102%; residual activity (CDK1 CCNB1 (human)): 91.3%; residual activity (LRRK2 (human)): 92.6%; residual activity (ADRBK1 (human)): 96.1%; residual activity (CDK6 CCND1 (human)): 101%; residual activity (EPHA4 (human)): 105%; residual activity (PTK2B (human)): 86.1%; residual activity (RPS6KA3 KD1 KD2 (human)): 105%; residual activity (MAP4K2 (human)): 120%; residual activity (TXK (human)): 101%; residual activity (SRPK1 (human)): 90.4%; residual activity (LYN (human)): 98.1% and 99.9%; residual activity (PAK4 (human)): 101%
